Biological target: T1, hNav1.7 and the β1 subunit (Homo sapiens, UniProt Q15858)
T1 construct: expressed in transfected cells
Assay: Tritiated compound competitive binding to membranes from cells heterologously expressing hNav1.7 and the β1 subunit (LBA)
Details: competition with 100 pM [3H]compound, 18 h, room temperature; IC50 by 4 parameter logistic model
Description: Example 235 Tritiated Compound Binding to Membranes Isolated from Cells that Heterologously Express hNav1.7 and the β1 Subunit
Preparation of membranes containing recombinantly expressed sodium channels: Frozen recombinant cell pellets were thawed on ice and diluted to 4 times the cell pellet weight with ice cold 50 mM Tris HCl, pH 7.4 buffer. The cell suspensions were homogenized on ice using a motorized glass dounce homogeniser. Homogenates were further diluted 8.4 times with ice cold 50 mM Tris HCl, pH 7.4 buffer and then centrifuged at 200×g at 4° C. for 15 min. The supernatants were collected and centrifuged at 10000×g at 4° C. for 50 min. The pellets were then re-suspended in 100 mM NaCl, 20 mM Tris HCl, pH 7.4 buffer containing 1% v/v protease inhibitors (Calbiochem) and re-homogenized on ice. The homogenized membranes were then processed through a syringe equipped with a 26 gauge needle. Protein concentrations were determined by Bradford Assay and the membranes were stored at −80° C.
Radioligand Binding Studies:
Saturation experiments. A competitive NaV1.7 inhibitor having a methyl group was tritiated. Three tritiums were incorporated in place of methyl hydrogens to generate [^3H]compound. Binding of this radioligand was performed in 5 mL borosilicate glass test tubes at room temperature. Binding was initiated by adding membranes to increasing concentrations of [^3H]compound in 100 mM NaCl, 20 mM Tris HCl, pH 7.4 buffer containing 0.01% w/v bovine serum albumin (BSA) for 18 h. […] After 18 h, the reactants were filtered through GF/C glass fiber filters presoaked in 0.5% w/v polyethylene imine. […] [^3H]compound bound to filters was quantified by liquid scintillation counting.
Competitive Binding Experiments:
Binding reactions were performed in 96-well polypropylene plates at room temperature for 18 h. In 360 μL, membranes were incubated with 100 pM [^3H]compound and increasing concentrations of Test Compound. […] Reactions were transferred and filtered through 96-well glass fiber/C filter plates presoaked with 0.5% polyethylene imine. The filtered reactions were washed 5 times with 200 μL ice cold buffer containing 0.25% BSA. Bound radioactivity was determined by liquid scintillation counting.
Data Analysis: For saturation experiments, non-specific binding was subtracted from total binding to provide specific binding and these values were recalculated in terms of pmol ligand bound per mg protein. Saturation curves were constructed and dissociation constants were calculated using the single site ligand binding model: Beq=(Bmax*X)/(X+Kd), where Beq is the amount of ligand bound at equilibrium, Bmax is the maximum receptor density, Kd is the dissociation constant for the ligand, and X is the free ligand concentration. For competition studies percent inhibition was determined and IC50 values were calculated using a 4 parameter logistic model (% inhibition=(A+((B−A)/(1+((x/C)^D)))) using XLfit, where A and B are the maximal and minimum inhibition respectively, C is the IC50 concentration and D is the (Hill) slope.

T1 sequence (Q15858 whole entry): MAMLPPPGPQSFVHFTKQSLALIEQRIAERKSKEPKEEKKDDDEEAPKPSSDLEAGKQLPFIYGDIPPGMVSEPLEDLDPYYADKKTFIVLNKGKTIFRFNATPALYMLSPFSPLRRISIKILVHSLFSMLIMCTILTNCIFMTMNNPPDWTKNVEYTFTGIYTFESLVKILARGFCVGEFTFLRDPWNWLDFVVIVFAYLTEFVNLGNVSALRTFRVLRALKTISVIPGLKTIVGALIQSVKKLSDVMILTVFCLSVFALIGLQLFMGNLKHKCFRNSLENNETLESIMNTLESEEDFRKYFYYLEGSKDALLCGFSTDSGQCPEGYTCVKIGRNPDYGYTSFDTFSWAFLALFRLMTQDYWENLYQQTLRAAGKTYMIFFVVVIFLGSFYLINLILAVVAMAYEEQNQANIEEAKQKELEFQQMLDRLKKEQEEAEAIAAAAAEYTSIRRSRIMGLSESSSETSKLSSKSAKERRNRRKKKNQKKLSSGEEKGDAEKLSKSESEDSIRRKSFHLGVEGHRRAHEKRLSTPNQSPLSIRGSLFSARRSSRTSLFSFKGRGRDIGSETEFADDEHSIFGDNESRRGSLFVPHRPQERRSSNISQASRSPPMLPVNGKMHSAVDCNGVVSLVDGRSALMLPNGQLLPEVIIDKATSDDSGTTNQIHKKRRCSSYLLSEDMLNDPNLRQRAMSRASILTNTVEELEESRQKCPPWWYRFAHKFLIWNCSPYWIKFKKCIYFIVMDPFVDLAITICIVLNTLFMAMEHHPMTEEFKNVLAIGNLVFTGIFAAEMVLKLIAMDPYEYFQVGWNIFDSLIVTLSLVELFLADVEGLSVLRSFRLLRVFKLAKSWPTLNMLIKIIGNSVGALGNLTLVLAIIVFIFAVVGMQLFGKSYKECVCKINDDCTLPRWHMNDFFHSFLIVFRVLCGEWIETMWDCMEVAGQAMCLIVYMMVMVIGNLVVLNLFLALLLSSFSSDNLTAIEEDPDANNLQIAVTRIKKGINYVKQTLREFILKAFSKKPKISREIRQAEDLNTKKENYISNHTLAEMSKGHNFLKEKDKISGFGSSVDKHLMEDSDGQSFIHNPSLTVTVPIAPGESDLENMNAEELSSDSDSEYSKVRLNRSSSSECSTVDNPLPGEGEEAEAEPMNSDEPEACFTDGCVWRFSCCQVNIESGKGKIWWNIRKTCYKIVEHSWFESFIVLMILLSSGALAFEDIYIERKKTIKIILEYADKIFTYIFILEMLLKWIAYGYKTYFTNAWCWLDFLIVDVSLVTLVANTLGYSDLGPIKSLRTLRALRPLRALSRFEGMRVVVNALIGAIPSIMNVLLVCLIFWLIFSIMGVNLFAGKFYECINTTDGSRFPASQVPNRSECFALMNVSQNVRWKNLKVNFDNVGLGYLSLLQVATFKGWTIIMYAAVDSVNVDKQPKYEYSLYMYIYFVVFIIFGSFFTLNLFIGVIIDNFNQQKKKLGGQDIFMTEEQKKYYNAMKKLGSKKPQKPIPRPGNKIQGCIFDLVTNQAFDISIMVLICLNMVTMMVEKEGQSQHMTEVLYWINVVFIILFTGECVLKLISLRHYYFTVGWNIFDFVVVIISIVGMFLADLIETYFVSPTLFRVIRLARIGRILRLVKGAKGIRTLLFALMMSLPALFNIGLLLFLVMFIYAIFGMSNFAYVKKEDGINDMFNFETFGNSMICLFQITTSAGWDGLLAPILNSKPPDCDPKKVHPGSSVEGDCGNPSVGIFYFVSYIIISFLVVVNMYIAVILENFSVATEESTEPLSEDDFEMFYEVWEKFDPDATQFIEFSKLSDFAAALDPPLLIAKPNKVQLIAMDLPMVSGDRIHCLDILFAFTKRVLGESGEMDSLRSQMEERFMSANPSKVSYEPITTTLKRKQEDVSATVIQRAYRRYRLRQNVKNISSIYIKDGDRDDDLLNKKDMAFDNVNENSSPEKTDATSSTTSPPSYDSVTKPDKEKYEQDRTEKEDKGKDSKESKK
T1 sequence (Q07699 19-218 partner): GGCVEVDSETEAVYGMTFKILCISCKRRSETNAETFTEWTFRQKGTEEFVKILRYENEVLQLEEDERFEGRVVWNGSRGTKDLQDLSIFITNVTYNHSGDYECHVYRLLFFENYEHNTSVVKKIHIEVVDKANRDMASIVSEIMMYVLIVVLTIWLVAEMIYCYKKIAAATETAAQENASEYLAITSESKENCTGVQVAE

Structure (SMILES)	Nav1.7 (LBA)
Cn1nccc1[C@@H]1C[C@H](C(F)(F)F)CCN1[C@H]1CCOc2cc(S(=O)(=O)Nc3ncns3)ccc21 (single isomer, unassigned) [Example 123]	0.000616 µM
Cn1nccc1[C@@H]1C[C@H](C(F)(F)F)CCN1[C@@H]1CCOc2cc(S(=O)(=O)Nc3ncns3)ccc21 (single isomer, unassigned) [Example 124]	0.601 µM
Cn1nccc1[C@H]1C[C@@H](C(F)(F)F)CCN1[C@H]1CCOc2cc(S(=O)(=O)Nc3ncns3)ccc21 (single isomer, unassigned) [Example 125]	0.00448 µM
Cn1nccc1[C@H]1C[C@@H](C(F)(F)F)CCN1[C@@H]1CCOc2cc(S(=O)(=O)Nc3ncns3)ccc21 (single isomer, unassigned) [Example 126]	0.313 µM
O=S(=O)(Nc1ncns1)c1ccc2c(c1)OCC[C@@H]2N1CCCC[C@H]1CCO (single isomer, unassigned) [Example 151]	3.51 µM
O=S(=O)(Nc1ncns1)c1ccc2c(c1)OCC[C@@H]2N1CCCC[C@@H]1CCO (single isomer, unassigned) [Example 152]	3.31 µM
O=S(=O)(Nc1ncns1)c1ccc2c(c1)OCC[C@@H]2N1CCCC[C@H]1C1CCCCC1 (single isomer, unassigned) [Example 155]	4.35 µM
O=S(=O)(Nc1ncns1)c1ccc2c(c1)OCC[C@@H]2N1CCCC[C@@H]1C1CCCCC1 (single isomer, unassigned) [Example 156]	0.907 µM
O=S(=O)(Nc1ncns1)c1ccc2c(c1)C(F)(F)CC[C@@H]2N1CCCC[C@H]1c1cccnc1 (single isomer, unassigned) [Example 227]	0.249 µM
O=S(=O)(Nc1ncns1)c1ccc2c(c1)C(F)(F)CC[C@H]2N1CCCC[C@H]1c1cccnc1 (single isomer, unassigned) [Example 228]	0.504 µM
Cn1nccc1[C@@H]1CCCCN1[C@H]1CCOc2cc(S(=O)(=O)Nc3ncns3)ccc21 [Example 41, (S)-4-((S)-2-(1-methyl-1H-pyrazol-5-yl)piperidin-1-yl)-N-(1,2,4-thiadiazol-5-yl)chromane-7-sulfonamide]	0.00609 µM
O=S(=O)(Nc1ncns1)c1ccc2c(c1)OCC[C@@H]2N1CCC(C(F)(F)F)CC1 [Example 44, (S)—N-(1,2,4-thiadiazol-5-yl)-4-(4-(trifluoromethyl)piperidin-1-yl)chromane-7-sulfonamide]	0.551 µM
O=S(=O)(Nc1ncns1)c1ccc(CN2CCC[C@H]2c2ccccc2)c(Cl)c1 [Example 48, (S)-3-chloro-4-((2-phenylpyrrolidin-1-yl)methyl)-N-(1,2,4-thiadiazol-5-yl)benzenesulfonamide]	1.48 µM
O=S(=O)(Nc1ncns1)c1ccc(CN2CCC[C@@H]2c2ccccc2)c(Cl)c1 [Example 49, (R)-3-chloro-4-((2-phenylpyrrolidin-1-yl)methyl)-N-(1,2,4-thiadiazol-5-yl)benzenesulfonamide]	6.81 µM
O=S(=O)(Nc1ncns1)c1ccc(CN2CCCCC2c2ccccc2)c(Cl)c1 (stereo not drawn) [Example 63, 3-chloro-4-((2-phenylpiperidin-1-yl)methyl)-N-(1,2,4-thiadiazol-5-yl)benzenesulfonamide]	0.609 µM

The next lines start with the values.

Nav1.7 (LBA)	Structure (SMILES)
0.00883 µM	CC(C)[C@@H]1CCN([C@H]2CCOc3cc(S(=O)(=O)Nc4ncns4)ccc32)[C@H](c2ccccc2)C1 (single isomer, unassigned) [Example 127]
0.469 µM	CC(C)[C@@H]1CCN([C@@H]2CCOc3cc(S(=O)(=O)Nc4ncns4)ccc32)[C@H](c2ccccc2)C1 (single isomer, unassigned) [Example 128]
0.0168 µM	CC(C)[C@H]1CCN([C@H]2CCOc3cc(S(=O)(=O)Nc4ncns4)ccc32)[C@@H](c2ccccc2)C1 (single isomer, unassigned) [Example 129]
0.109 µM	CC(C)[C@H]1CCN([C@@H]2CCOc3cc(S(=O)(=O)Nc4ncns4)ccc32)[C@@H](c2ccccc2)C1 (single isomer, unassigned) [Example 130]
0.00851 µM	O=S(=O)(Nc1ncns1)c1ccc2c(c1)OCC[C@@H]2N1CCC(F)(F)C[C@@H]1c1ccc(F)cc1 (single isomer, unassigned) [Example 131]
0.0757 µM	O=S(=O)(Nc1ncns1)c1ccc2c(c1)OCC[C@H]2N1CCC(F)(F)C[C@@H]1c1ccc(F)cc1 (single isomer, unassigned) [Example 132]
0.0467 µM	O=S(=O)(Nc1ncns1)c1ccc2c(c1)OCC[C@H]2N1CCC(F)(F)C[C@H]1c1ccc(F)cc1 (single isomer, unassigned) [Example 133]
0.00295 µM	O=S(=O)(Nc1ncns1)c1ccc2c(c1)OCC[C@@H]2N1CCC(F)(F)C[C@H]1c1ccc(F)cc1 (single isomer, unassigned) [Example 134]
0.0271 µM	CC(C)(O)[C@H]1CCN([C@@H]2CCOc3cc(S(=O)(=O)Nc4ncns4)ccc32)[C@@H](c2ccc(F)cc2)C1 (single isomer, unassigned) [Example 135]
0.0194 µM	CC(C)(O)[C@H]1CCN([C@H]2CCOc3cc(S(=O)(=O)Nc4ncns4)ccc32)[C@@H](c2ccc(F)cc2)C1 (single isomer, unassigned) [Example 136]
0.736 µM	CC(C)(O)[C@@H]1CCN([C@@H]2CCOc3cc(S(=O)(=O)Nc4ncns4)ccc32)[C@H](c2ccc(F)cc2)C1 (single isomer, unassigned) [Example 137]
0.0035 µM	CC(C)(O)[C@@H]1CCN([C@H]2CCOc3cc(S(=O)(=O)Nc4ncns4)ccc32)[C@H](c2ccc(F)cc2)C1 (single isomer, unassigned) [Example 138]
2.29 µM	O=S(=O)(Nc1ncns1)c1ccc2c(c1)OCC[C@H]2N1CCC(F)(F)C[C@H]1c1ccccc1 (single isomer, unassigned) [Example 139]
0.0144 µM	O=S(=O)(Nc1ncns1)c1ccc2c(c1)OCC[C@@H]2N1CCC(F)(F)C[C@H]1c1ccccc1 (single isomer, unassigned) [Example 140]
0.486 µM	O=S(=O)(Nc1ncns1)c1ccc2c(c1)OCC[C@H]2N1CCC(F)(F)C[C@@H]1c1ccccc1 (single isomer, unassigned) [Example 141]
0.0173 µM	O=S(=O)(Nc1ncns1)c1ccc2c(c1)OCC[C@@H]2N1CCC(F)(F)C[C@@H]1c1ccccc1 (single isomer, unassigned) [Example 142]
8.9 µM	O=S(=O)(Nc1ncns1)c1ccc2c(c1)OCC[C@@H]2N1CC[C@@H](C(F)(F)F)C[C@H]1c1ccn[nH]1 (single isomer, unassigned) [Example 143]
0.282 µM	O=S(=O)(Nc1ncns1)c1ccc2c(c1)OCC[C@H]2N1CC[C@@H](C(F)(F)F)C[C@H]1c1ccn[nH]1 (single isomer, unassigned) [Example 144]
0.0117 µM	O=S(=O)(Nc1ncns1)c1ccc2c(c1)OCC[C@@H]2N1CC[C@H](C(F)(F)F)C[C@@H]1c1ccn[nH]1 (single isomer, unassigned) [Example 145]
0.308 µM	O=S(=O)(Nc1ncns1)c1ccc2c(c1)OCC[C@H]2N1CC[C@H](C(F)(F)F)C[C@@H]1c1ccn[nH]1 (single isomer, unassigned) [Example 146]
0.142 µM	Cn1nccc1[C@H]1CCCCN1[C@H]1CCOc2cc(S(=O)(=O)Nc3ncns3)ccc21 [Example 42, (S)-4-((R)-2-(1-methyl-1H-pyrazol-5-yl)piperidin-1-yl)-N-(1,2,4-thiadiazol-5-yl)chromane-7-sulfonamide]
